Data reported in BindingDB's records for patent US20250127913 (Lycia Therapeutics, 2025).

Columns and labels:
Folate receptor beta [1] = target: T1, Folate receptor beta (Homo sapiens, UniProt P14207); assay: Folate Receptor Binding Assay
Experimental: Table 15: Folate receptor binding was measured in black 96-well plates using a fluorescence polarization assay. A fluorescent probe consisting of a folate analog linked to Cy5 (FR-Cy) was custom synthesized. Test compounds were resuspended in DMSO and 3-fold serial dilutions were made from 300-0.015 μM (100× final concentrations). Binding reactions were conducted in 200 μl final volume in 20 mM Hepes (pH 7.5) 250 mM NaCl 0.0150 Tween-20 1% DMSO with 2.5 nM folate receptor beta (Acro Biosystems) and 2 nM probe. Fluorescence polarization was measured using λex=620 nm, λem=688 nm on an Envision plate reader (Perkin Elmer) after 2 hr incubation time. Dose responses were conducted in duplicate and normalized to the response with DMSO (high) and 1 μM folic acid (low) on each plate. IC50 values were determined by fitting to 4-parameter curves in GraphPad Prism.

Tumor necrosis factor = Tumor necrosis factor (Homo sapiens, UniProt P01375); assay: TNFα Binding Assay
Experimental: Table 15: TNFα binding was measured in black 96-well plates using a time-resolved FRET assay using a previously described fluorescence acceptor TNFα probe (Xiao et al J. Med. Chem. 2020). Biotinylated TNFα was purchased from Acro Biosystems. Binding reactions were conducted in 20 mM Hepes (pH 7.5) 10 mM MgCl2 0.015% Tween-20 0.05 mg/ml BSA 2% DMSO with 1 nM TNFα 0.5 nM Streptavidin-Tb and 80 nM probe. Test compounds were resuspended in DMSO and 3-fold serial dilutions were made at 100× final concentrations. Fluorescence was measured using λex=340 nm, λem=490, 520 nm on an SpectraMax M5e plate reader (Molecular Devices) after 16 hr incubation time. Dose responses were conducted in duplicate and normalized to the response with DMSO (high) and 100 nM (R)-3-(1-((3-chloro-7-fluoro-6-(2-(2-hydroxypropan-2-yl)pyrimidin-5-yl)-2-methyl-1,5-naphthyridin-4-yl)amino)ethyl)-4-fluorobenzonitrile (low) on each plate. IC50 values were determined by fitting to 4-parameter curves in GraphPad Prism.

Folate receptor beta [2] = target: T1, Folate receptor beta; assay: Folate Receptor SPR Assay
Experimental: Table 16: Folate receptor SPR binding assays were conducted on a Biacore 8K instrument (Cytiva) using biotinylated folate receptor beta (Acro Biosystems). Briefly, folate receptor was immobilized at -550 RU on a streptavidin chip (Cytiva) in 10 mM HEPES pH 7.5, 150 mM NaCl, 0.05% Tween 20. Multi-cycle kinetic studies were conducted with 8 compound concentrations using 2-fold dilutions in 10 mM HEPES pH 7.5, 150 mM NaCl, 0.05 % Tween 20, 2% DMSO at 25° C. A flow rate or 75 μl/mmn with an association time of 120 s and a dissociation time of 600 s were used. Surfaces were regenerated with 4 M MgCl2 at 30 μl/min for 30 s. Data were fit to a 1:1 model to determine the reported binding parameters.

T1 sequence (P14207 whole entry): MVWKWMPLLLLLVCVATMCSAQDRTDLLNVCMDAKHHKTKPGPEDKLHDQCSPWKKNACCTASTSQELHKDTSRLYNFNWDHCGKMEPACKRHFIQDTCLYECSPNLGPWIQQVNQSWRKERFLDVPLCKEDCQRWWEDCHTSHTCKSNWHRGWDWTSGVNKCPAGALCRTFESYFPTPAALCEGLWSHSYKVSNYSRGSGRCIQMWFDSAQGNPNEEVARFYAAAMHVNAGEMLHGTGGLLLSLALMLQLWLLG
Tumor necrosis factor, sequence (P01375 whole entry): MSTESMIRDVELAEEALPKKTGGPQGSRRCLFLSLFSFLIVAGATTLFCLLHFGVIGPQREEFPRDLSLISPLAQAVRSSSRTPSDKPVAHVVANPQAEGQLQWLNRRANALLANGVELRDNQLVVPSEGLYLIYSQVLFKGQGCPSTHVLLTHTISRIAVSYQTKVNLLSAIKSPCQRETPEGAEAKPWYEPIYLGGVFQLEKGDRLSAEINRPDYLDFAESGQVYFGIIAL

Cc1nc2cc(F)c(-c3cnc(N4CCN(C(=O)COCCn5cc(COCCOCCOCCOCCNC(=O)CC[C@H](NC(=O)[C@H]6CC[C@H](NCc7cnc8nc(N)nc(O)c8n7)CC6)C(=O)O)nn5)CC4)nc3)nc2c(N[C@H](C)c2ccccc2F)c1Cl [US20250127913, Compound I-91]
IC50 (Folate receptor beta [1]): 138 nM | IC50 (Tumor necrosis factor): 17.5 nM | Kd (Folate receptor beta [2]): 0.201 nM
